Test [1] deals with AAD2 (v1)-transformed T1 Arabidopsis. The experiment in a line: T1 Arabidopsis response to postemergence herbicide, % visual injury 2 WAT: native AAD2 (v1) transformants. The format is in vivo, Arabidopsis thaliana. The settings on record: Native AAD2 gene. The text has this: Table 16. […] Response is presented in terms of % visual injury 2 WAT. […] Since each T1 is an independent transformation event, one can expect significant variation of individual T1 responses within a given rate. An arithmetic mean and standard deviation is presented for each treatment. The range in individual response is also indicated in the last column for each rate and transformation. PAT/Cry1F-transformed Arabidopsis served as an auxin-sensitive transformed control. Wildtype Arabidopsis is untransformed.
Freshly harvested T1 seed transformed with a native [AAD1 (v2)], plant optimized [AAD1 (v3)], or native AAD2 (v1) gene was allowed to dry for 7 days at room temperature. T1 seed was sown in 26.5×51-cm germination trays (T.O. Plastics Inc., Clearwater, Minn.), each receiving a 200 mg aliquots of stratified T1 seed (˜10,000 seed) that had previously been suspended in 40 ml of 0.1% agarose solution and stored at 4° C. for 2 days to complete dormancy requirements and ensure synchronous seed germination.
Sunshine Mix LP5 (Sun Gro Horticulture Inc., Bellevue, Wash.) was covered with fine vermiculite and subirrigated with Hoagland's solution until wet and then allowed to gravity drain. Each 40 ml aliquot of stratified seed was sown evenly onto the vermiculite with a pipette and covered with humidity domes (KORD Products, Bramalea, Ontario, Canada) for 4-5 days. Domes were removed 1 day prior to initial transformant selection using glufosinate postemergence spray (selecting for the co-transformed PAT gene).
Five to six days after planting (DAP) and again 10 DAP, T1 plants (cotyledon and 2-4-1f stage, respectively) were sprayed with a 0.2% solution of Liberty herbicide (200 g ai/L glufosinate, Bayer Crop Sciences, Kansas City, Mo.) at a spray volume of 10 ml/tray (703 L/ha) using a DeVilbiss compressed air spray tip to deliver an effective rate of 280 g ai/ha glufosinate per application. Survivors (plants actively growing) were identified 5-7 days after the final spraying and transplanted individually into 3-inch pots prepared with potting media (Metro Mix 360). Transplanted plants were covered with humidity domes for 3-4 days and placed in a 22° C. growth chamber as before. Domes were subsequently removed and plants moved to the greenhouse (22+5° C., 50+30% RH, 14 hours light:10 dark, minimum 500 μE/m^2s^1 natural+supplemental light) at least 1 day prior to testing for the ability of AAD1 (v3), AAD1 (v2), or AAD2 (v1) to provide phenoxy auxin herbicide resistance.
Random individual T1 plants selected for glufosinate resistance above were confirmed for expression of the PAT protein using a PAT ELISA kit (Part no. 7000045, Strategic Diagnostics, Inc., Newark, Del.) to non-destructively confirm fidelity of selection process (manufacturer's protocol).
Herbicide applications were applied by track sprayer in a 187 L/ha spray volume.

In test [2] the test system is AAD1-transformed T0 ‘Shamrock’ Kentucky bluegrass events. The experiment in a line: Haloxyfop-R-methyl postemergence on AAD1 (pDAB3878) T0 Shamrock Kentucky bluegrass, visual % injury. As to conditions: for injury of event KGB51: 560 g ae/ha. The test is classed as in vivo. As to the method: ‘Shamrock’ Kentucky bluegrass T0 pDAB3878 events were maintained vegetatively through division of the crowns and replanting the clonal pieces into fresh growth medium. Clonally propagated plants were maintained by periodic “mowing” of vegetative tissues.
A growth medium was prepared by mixing Promix® and sand in a 2 to 1 ratio. The medium was contained in plastic pots with a surface area of 84.6 square centimeters (cm^2). When required to maintain plant health, a fungicide, insecticide, and/or other chemical or physical treatment was applied to stock plants. The plants were maintained in a greenhouse with an approximate 14 hour photoperiod which was maintained at 24-27° C. during the day and 22-25° C. during the night. Nutrients (Peters Excel® 15-5-15 5-Ca 2-Mg and iron chelate) were applied in the irrigation solution as needed and water was added on a regular basis. Supplemental lighting was provided with overhead metal halide 1000-Watt lamps when PAR dropped below 500.
The selected T0 plants were sprayed with haloxyfop-R-methyl (Gallant Super®, DOW AGROSCIENCES, INC.) at rates ranging from 140 to 560 g ae/ha. […] This rate would also control susceptible monocot weed species. Measured amounts were placed individually in 25 mL glass vials and dissolved in a 12 mL volume of 1.0% (v/v) Agri-Dex® Crop Oil Concentrate (COC).
Spray solutions were applied to the plant material with an overhead Mandel™ track sprayer equipped with a 8002E nozzles calibrated to deliver 187 L/ha over an application area of 0.503 square meters (m^2) at a spray height of 18 inches (46 cm) above average plant canopy height. Control plants were sprayed in the same manner with the COC blank.
The treated plants and control plants were placed in a greenhouse and watered by sub-irrigation to prevent wash-off of the test compounds. At various times after application, the condition of the test plants as compared with that of the untreated plants was determined visually and scored on a scale of 0 to 100 percent, where 0 corresponds to no injury or growth inhibition, and 100 corresponds to complete kill. Regenerated, non-transformed (NT) ‘Shamrock’ Kentucky bluegrass plants and/or seed-derived clonally propagated plants served as haloxyfop sensitive controls.

For test [3], the system named is Non-transformed Hi-II callused suspension tissue. As to the kind of experiment: Dose response of non-transformed maize callus tissue. The test is classed as cell-based. As to conditions: haloxyfop 400 nM.
Test [4] has as its system AAD1 (v3) rice plantlets. The experiment in a line: Rice tolerance testing with Assure II (sensitivity or resistance 10-14 DAT). The format is in vivo, Oryza sativa L. japonica cv. Taipei 309. As to conditions: 140 g ae/ha. The method, then:
This concentration corresponds to approximately 140 g ae/ha. Each plant was spayed in a fume hood at a distance of 8-12 inches with 6 full squirts of the sprayer directed so that the entire plant was covered with an equal portion of herbicide. Each squirt delivered approximately 100 μl solution to the plantlet. Once sprayed, plantlets were allowed to dry for one hour before being moved out of the fume hood.

Take `O=C(O)COc1ccc(Cl)cc1Cl` [2,4-D, 2,4-dichlorophenoxyacetic acid]: in test [1] (50 g ae/ha), the “% Injury Ave” value is reported as 68.2%, the “individuals with 20-40% injury” value came out at 2, the “individuals with <20% injury” value turned out to be 1 and the “individuals with >40% injury” value is 11. In test [1] (200 g ae/ha), the “individuals with 20-40% injury” value is 3, the “individuals with <20% injury” value is given as 0 and the “individuals with >40% injury” value was 11. Further, in test [1] (800 g ae/ha), the “% Injury Ave” value is on record as 99.8%, the “individuals with 20-40% injury” value amounted to 0, the “individuals with <20% injury” value was 0 and the “individuals with >40% injury” value is 14.

As for `CC(Oc1ccc(Oc2ncc(C(F)(F)F)cc2Cl)cc1)C(=O)O` (stereo not shown) [haloxyfop], the “mean injury, pDAB3878 Shamrock Kentucky bluegrass events” value in test [2] (140 and 560 g ae/ha, 11, 14 and 20 DAA) was “less than 15%”. Besides, the “injury of event KGB51” value in test [2] (11 DAA) is on record as “about 20%”; in test [2] (14 DAA), roughly 30%; in test [2] (20 DAA) it was roughly 30%. Also, the “non-transgenic corn callus tissue growth” value in test [3] is “inhibited”.

`C[C@@H](Oc1ccc(Oc2cnc3cc(Cl)ccc3n2)cc1)C(=O)O` [quizalofop]: the “Rating for sensitivity or resistance” value in test [4] (Control rice plant) is on record as “Dead”; in test [4] (rice plant 63-1A) it was “No injury”; in test [4] (rice plant 63-1F), “No injury”; in test [4] (rice plant 63-4B) it was “No injury”; in test [4] (rice plant 63-4D), “No injury”; in test [4] (rice plant 63-6C), “Dead”.

Source of the values: patent US10450549B2, “Aryloxyphenoxypropionate tolerance in turfrgass species and use of AAD1 as a selectable marker” (Dow AgroSciences, LLC, priority 2004, dated 2019).
